Test results as given in PMC10212513, “Site IQ in mitochondrial complex I generates S1QEL-sensitive superoxide/hydrogen peroxide in both the reverse and forward reactions” (Biochemical Journal, 2023).
Like-named read-outs stand apart in the source and are kept apart here.

What was measured:
[1] = tested on: Fa2N-4 cells; assay: NAD(P)H autofluorescence two-photon imaging, single-cell analysis; format: cell-based
Protocol: Subcellular resolution micrographs of NAD(P)H autofluorescence were recorded using an upright Zeiss LSM 7MP multiphoton microscope, equipped with a Chameleon Vision II mode-locked laser set to 710 nm (1–1.5% of the 745 mW output power was used) and W Plan-Apochromat 20×/1.0 DIC M27 75 mm dipping water immersion objective lens and detection of emission between 420 and 480 nm. 1024 × 1024 pixels images (0.2 µm/pixel) were recorded at maximal scan speed and 8× frame averaging. Time courses of two frames, one before and one after the addition of rotenone (2 µM), FCCP (4 µM) or vehicle (DMSO 1 : 2000) were recorded using the Zeiss Multi Time Series macro. The cell monolayer was auto-focused at one x,y-position, and four other positions were imaged for analysis in each dish. Recordings were analysed in Image Analyst by rigid image registration, background subtraction and ROI-based intensity measurement. Unbiased single-cell ROIs were generated in using Cellpose 2.0 [48] with the ‘cyto2' neural network. Histograms were generated in Mathematica.

[2] = tested on: isolated rat skeletal muscle mitochondria; format: biochemical
Protocol: Mitochondria were immobilised in coverglass-bottomed 96-well microplates (Greiner Sensoplate) by centrifugation for 15 min at 1000 g in KHEB medium at 4°C. The microplate was warmed in the 37°C heated environment chamber of a Nikon Eclipse Ti-PFS fully motorised wide-field fluorescence microscope equipped with a Lambda 821 LED light source with Lambda 10-3 emission filter wheel and Andor iXon Life 888 EMCCD camera, controlled by NIS Elements 5.20. TMRM (100 nM) was added to the wells, and in successive additions substrates were added without changing the TMRM concentration. TMRM was imaged using a Super Fluor 40× NA1.3 oil lens, a 586/20 nm excitation filter on a 560 nm LED, a 593 nm dichroic mirror, and a 641/75 nm emission filter capturing the centre 512 × 512 pixels area of the camera with no binning and with 1.5× optical zoom (0.17 µm/pixel resolution). Multiple (typically 25) view fields were recorded in one to three wells for 3 time points per substrate condition. In some experiments, TMRM imaging was followed by recording frames of NAD(P)H autofluorescence in the same view fields using a 340 nm LED, 414 nm dichroic mirror and 460/80 nm emission filter. The first autofluorescence frame matched the substrate condition of the last TMRM frame and then the recording of three more frames followed the application of rotenone (4 µM) or FCCP (4 µM) by 1 min delay. Recordings were analysed in Image Analyst MKII 4.2.1 (Image Analyst Software, Novato, CA) by performing image registration, background subtraction and ROI-based intensity measurement. Background was subtracted first as a blank image and then frame-by-frame using the ‘Mean of pixels below percentile of max projection (dilated mask)' method. Single-mitochondria ROIs were generated by morphological segmentation using a modification of the ‘Mitochondria : cell volume fractionator (basic)' standard pipeline. ΔψM was calculated using the Nernst equation. Because fluorescence was small in the absence of substrates, polarisation by G + M was calculated from TMRM fluorescence intensities (FTMRM) by comparison to succinate as 61 mV × log(FTMRM_G + M/FTMRM_succinate), which expresses how much less polarisation was provided by G + M than succinate, in millivolts. Polarisation by G3P was calculated by comparison to G + M as 61 mV × log(FTMRM_G3P/FTMRM_G + M), which expresses the millivolts hyperpolarisation when G3P is added in the presence of G + M. Changes in NAD(P)H autofluorescence (ΔNADH) were expressed as the observed fluorescence intensity change normalised to the population mean fluorescence before rotenone (or FCCP) addition. […] This was then converted to log2-fold changes to provide symmetrical distributions. Scatter plots were generated and analysed in Mathematica 13 (Wolfram Research).

[3] = tested on: site IQf in complex I; assay: Amplex UltraRed assay of superoxide/hydrogen peroxide production during forward electron transport (glycerol 3-phosphate plus 50 µM glutamate plus malate); format: biochemical, rat
Protocol: Cuvette- and plate-based assays of superoxide/hydrogen peroxide production during RET using 12.5 mM G3P (or during FET using 12.5 mM G3P, 50 µM glutamate plus 50 µM malate) as substrate were conducted at 37°C as described [45] using 0.2 mg of mitochondrial protein/ml in 3 ml (plastic cuvettes, Varian Cary Eclipse spectrofluorometer (Ex 560 nm/Em 590 nm)) or 0.2 mg mitochondrial protein/ml, 0.01 mg/well (Pherastar FS (BMG) fluorescence microplate reader, Ex 540 nm/Em 590 nm), in KHEB medium (120 mM KCl, 3 mM HEPES, 1 mM EGTA, 0.3% w/v bovine serum albumin, pH 7.4) containing 25 U/ml SOD1, 25 µM Amplex Ultrared, and 5 U/ml HRP, plus dimethyl sulfoxide (DMSO) or treatments as indicated.

[4] = tested on: rat skeletal muscle mitochondria; assay: Respiration of isolated mitochondria on glycerol 3-phosphate (Seahorse extracellular flux analyzer); format: biochemical; settings: 1–10 µM; in the presence of ADP; n = 2–3
Protocol: Mitochondrial respiration was assayed at 37°C using an Agilent Seahorse XFe-24 as described previously, using 12.5 mM G3P as substrate.

[5] = tested on: Fa2N-4 cells; assay: Subcellular analysis of NAD(P)H autofluorescence (mitochondria within cells); format: cell-based; settings: rotenone challenge
Protocol: The NAD(P)H autofluorescence multiphoton time courses described above were de-noised by Wiener filtering, cropped based on the Cellpose ROIs resulting in 256 × 256 pixels images of single cells, and surrounding structures were masked in Image Analyst MKII. Then, to compensate for the motility of mitochondria during the time courses, B-spline-based deformable image registration was performed in Elastix 5.0.1 [49]. Image registration was quality controlled subjectively plus by calculating Pearson’s cross-correlation coefficient between before- and after-rotenone frames, and cells with a value lower than 0.6 were discarded. The pixel-by-pixel ratio of after- over before-treatment frames was calculated, masked by mitochondrial profiles generated by Otsu’s threshold method (with a logical OR of before- and after-frames), and log2 of the ratios was taken for all pixels. Image histograms were saved to Excel and analysed in Mathematica using a maximum log-likelihood method for fitting the binned log2-fold intensity values with normal distribution(s). Mock treatments were fitted well with a single, symmetric distribution. We attribute this change of pixel intensities between the consecutive frames of the time course to motility artefacts and noise. The distribution of log2-fold pixel intensity changes for rotenone-treated cells was wider, and therefore we coarsely modelled it as sum of two normal distributions (rotenone-responsive and unresponsive mitochondria, with σ matching that of the mock-treatment modelling motility and noise effects). […] This analysis was repeated for individual single cells (total 185 in three experiments).

[6] = plate-reader titrations, IQf versus IQr, 2 µM atpenin A5, 10 µM S3QEL3
[7] = rotenone 4 µM challenge, 50 µM G + M plus 12.5 mM G3P

## N#CC(C#N)=NNc1ccc(OC(F)(F)F)cc1 [FCCP]
[1]; FCCP 4 µM
  Cells responding with a decrease in NAD(P)H autofluorescence: All cells
[2]
  Mitochondria responding with significant oxidation of NADH: 85 ± 2%
[3]
  Sensitivity of superoxide/hydrogen peroxide production from site IQf compared with site IQr: equally sensitive

## COc1[nH]c(=O)c(C(=O)[C@@H](C)C[C@H](C)[C@@H](Cl)CCl)c(O)c1OC [atpenin A5]
[4]
  Effect on respiration on 12.5 mM G3P: no significant effect

## CO[C@@H]1C[C@@H](C[C@H]2CC[C@H](C)[C@H]([C@@H](C)C(=O)O)O2)O[C@]2(O[C@](C)([C@H]3CC[C@@](C)([C@@H]4O[C@@H]([C@H]5O[C@@](O)(CO)[C@H](C)C[C@@H]5C)C[C@@H]4C)O3)C[C@H]2C)[C@@H]1C [nigericin]
[3]; [6]
  Sensitivity of superoxide/hydrogen peroxide production from site IQf compared with site IQr: equally sensitive

## C/C=C(\C)[C@H](O)[C@H](C)/C=C(C)/C=C/C/C(C)=C/Cc1nc(OC)c(OC)c(O)c1C [piericidin A]
[3]; 10 µM, plate-reader
  Superoxide/hydrogen peroxide production by site IQf at highest concentration: IQf activity reappeared
[3]; [6]
  Sensitivity of superoxide/hydrogen peroxide production from site IQf compared with site IQr: equally sensitive

## C=C(C)[C@H]1Cc2c(ccc3c2O[C@@H]2COc4cc(OC)c(OC)cc4[C@@H]2C3=O)O1 [rotenone]
[5]; n = 3
  Cellular mitochondria oxidising on challenge (excess pixel count): 0.5 ± 0.1%
[5]; n = 3 experiments, 185 cells
  Mitochondria in cells estimated to respond poorly or not at all: 26 ± 3%
  Mitochondria in cells that responded with increased fluorescence: 74 ± 3%
[5]; responder population
  Mean increase in NAD(P)H fluorescence intensity of responding mitochondria: 50 ± 10%
[1]; rotenone challenge (4 µM in legend, 2 µM in methods), n = 4
  Cells responding with an increase in NAD(P)H autofluorescence: 97 ± 4%
[2]; [7]
  Mitochondria responding by significantly increasing the reduction of their NADH/NAD+ pool: 65%
  Mitochondria that did not change NAD(P)H fluorescence significantly: 30 ± 9%
[2]; rotenone 4 µM challenge, 50 µM G + M plus 12.5 mM G3P, n = 4
  Mitochondria responding by significant oxidation of NADH to NAD+: 4.2 ± 1.1%
[3]; [6]
  Sensitivity of superoxide/hydrogen peroxide production from site IQf compared with site IQr: equally sensitive
